Measured values reported in PubChem BioAssay (NCI).
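Compound exposure: 48 hours, 5 concentrations, 96-well plates. GI50 is the concentration that inhibits growth by half. TGI is the concentration that stops growth completely.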

Legend:
Assay in all cases: DTP human tumour cell line panel, 48 h
MDA-MB-435 = system: MDA-MB-435
HCT-116 colon = system: HCT-116 colon
ACHN renal = system: ACHN renal
SR leukemia = system: SR leukemia
TK-10 renal = system: TK-10 renal
U251 CNS = system: U251 CNS
HCT-15 colon = system: HCT-15 colon
NCI-H23 lung = system: NCI-H23 lung
UO-31 renal = system: UO-31 renal
HL-60(TB) leukemia = system: HL-60(TB) leukemia

Row | SMILES | TGI (MDA-MB-435) [µM] | TGI (HCT-116 colon) [µM] | TGI (ACHN renal) [µM] | TGI (SR leukemia) [µM] | TGI (TK-10 renal) [µM] | TGI (U251 CNS) [µM] | TGI (HCT-15 colon) [µM] | TGI (NCI-H23 lung) [µM] | TGI (UO-31 renal) [µM] | TGI (HL-60(TB) leukemia) [µM] | GI50 (MDA-MB-435) [µM] | GI50 (HCT-116 colon) [µM] | GI50 (ACHN renal) [µM] | GI50 (SR leukemia) [µM] | GI50 (TK-10 renal) [µM] | GI50 (U251 CNS) [µM] | GI50 (HCT-15 colon) [µM] | GI50 (NCI-H23 lung) [µM] | GI50 (UO-31 renal) [µM] | GI50 (HL-60(TB) leukemia) [µM]
1 | NC(=O)C1CCN(Cc2c(Cl)c(Cl)c(CN3CCC(C(N)=O)CC3)c(Cl)c2Cl)CC1 | > 100 | > 100 | > 100 | > 100 | > 100 | > 100 | > 100 | > 100 | > 100 | > 100 |  |  |  |  |  |  |  |  |  | 
2 | Nc1c(N2CCOCC2)c(=O)nc2[nH]/c(=C\c3ccccc3O)c(=O)n12 | > 100 | > 100 | > 100 | > 100 | > 100 | > 100 | > 100 | > 100 | > 100 | > 100 |  |  |  |  |  |  |  |  |  | 
3 | O=C(c1ccc([N+](=O)[O-])cc1)N1CCCC1 | > 100 | > 100 | > 100 | > 100 | > 100 | > 100 | > 100 | > 100 | > 100 | > 100 |  |  |  |  |  |  |  |  |  | 
4 | Cc1c(C(=O)NNc2ccccc2)n2c(=S)[nH]nc2c2ccccc12 | > 100 | > 100 | > 100 | > 100 | > 100 | > 100 | > 100 | > 100 | > 100 | > 100 |  |  |  |  |  |  |  |  |  | 
5 | CCN(CC)C(=S)N/N=C(/c1ccccc1)c1ccccn1 | > 47.3 | 13.6 | 5.39 | 0.953 | 29 | 18.8 | > 36.9 | > 43.3 | 9.52 | 1.59 |  |  |  |  |  |  |  |  |  | 
6 | CCn1ncc2c(=O)n3ncn(-c4ccc(Br)cc4)c3nc21 | > 100 | > 100 | > 100 | > 100 | > 100 | > 100 | > 100 | > 100 | > 100 | > 100 |  |  |  |  |  |  |  |  |  | 
7 | COc1ccc2c(c1OC)C(=O)N1C2=Cc2c(cc3c(c2OC)OCO3)CC1N(C)C (centres undefined) | > 100 | > 100 | > 100 | > 100 | > 100 | > 100 | > 100 | > 100 | > 100 | 80.1 |  |  |  |  |  |  |  |  |  | 
8 | CC1(C)OCC(C2OC(C)(C)OC2[C@H]2O[C@@]3(O)[C@H]4[C@H](C=CC[C@@H]42)[C@@H](OCc2ccccc2)[C@H](OCc2ccccc2)[C@H]3OCc2ccccc2)O1 (some centres undefined) | > 100 | > 100 | > 100 | 31.4 | > 100 | > 100 | > 100 | > 100 | 72.3 | 42.4 |  |  |  |  |  |  |  |  |  | 
9 | O=C([C@H](O)[C@@H](O)c1cccc(Cl)c1)C12CC3CC(CC(C3)C1)C2 | 8.46 | 6.79 | 3.56 | > 100 | 3.69 | 2.98 | 6.62 | 3.84 | 3.83 | 3.79 |  |  |  |  |  |  |  |  |  | 
10 | N#C/C(C(=O)NCc1ccccc1)=C(/N)N1CCCC1 | > 100 | > 100 | > 100 | > 100 | > 100 | > 100 | > 100 | > 100 | > 100 | > 100 |  |  |  |  |  |  |  |  |  | 
11 | c1ccc2c(c1)cc1ccc3cccc4ccc2c1c34 | > 100 | > 100 | > 100 | > 100 | > 100 | > 100 | > 100 | > 100 | > 100 | > 100 |  |  |  |  |  |  |  |  |  | 
12 | C/C(=C\CSCC(N)C(=O)O)CC/C=C(\C)CNc1ccccc1 (centres undefined) | > 100 | > 100 | > 100 | > 100 | > 100 | > 100 | > 100 | > 100 | > 100 | > 100 |  |  |  |  |  |  |  |  |  | 
13 | CCc1nc2c(c(N(C)C)c1C(=O)OC)CCc1ccccc1-2 | 65.6 | > 100 | > 100 | 32.9 | > 100 | > 100 | > 100 | > 100 | > 100 | 9.43 |  |  |  |  |  |  |  |  |  | 
14 | CCN(CC)CCCCNc1c2ccc(Cl)cc2nc2ccc(OC)cc12 | 2.31 | 1.94 | 2.27 | 1.53 | 4.59 | 2.16 | 1.62 | 2.38 | 3.31 | 3.2 | 1.05 | 0.301 | 0.371 | 0.207 | 0.925 | 0.45 | 0.289 | 0.524 | 0.759 | 1.03
15 | Clc1ccc(/C(=C/c2ccccc2)Cn2ccnc2)cc1 | 67.7 | > 100 | > 100 | 78.4 | > 100 | > 100 | > 100 | > 100 | > 100 | 46.3 |  |  |  |  |  |  |  |  |  | 
16 | COc1cc2c(c(OC)c1)[C@H](C)N(Cc1ccccc1)C(C)C2 (some centres undefined) | 37.8 | > 100 | > 100 | > 100 | > 100 |  | > 100 | > 100 | > 100 | 24.8 |  |  |  |  |  |  |  |  |  | 
17 | CN1C2=Nc3n(c4ccccc4[n+]3C)CN2c2ccccc21 | 91 | > 100 | > 100 | 81.5 | > 100 | > 100 | > 100 | > 100 | > 100 | > 100 |  |  |  |  |  |  |  |  |  | 
18 | O=c1c2c3c(sc2nc2n1N=C(c1ccc(Br)cc1)CS2)CCCC3 | > 100 | > 100 | > 100 | > 100 | > 100 | > 100 | > 100 | > 100 | > 100 | > 100 |  |  |  |  |  |  |  |  |  | 
19 | CC1=C(C(=O)OCCO[N+](=O)[O-])C(c2ccccc2[N+](=O)[O-])C(C(=O)OC(C)C)=C(C)N1 (centres undefined) | 28.5 | 29.8 | 87.6 | > 100 | 58.4 | 30 | 30.9 | 48.5 | 26.2 | > 100 |  |  |  |  |  |  |  |  |  | 
20 | CCOC(=O)[C@@H](Cc1ccc(CCl)cc1)NC(C)=O | 48.7 | > 100 | 43.5 | > 100 | 23.4 | 40.5 | 94.1 | 68.3 | 36.4 | 70.7 |  |  |  |  |  |  |  |  |  | 
